Experimental findings from patent US9315496B2, “Benzopyrone derivative and use thereof” (HUAZHONG UNIVERSITY OF SCIENCE & TECHNOLOGY, priority 2011, dated 2016) are described below.

Series [1] relates to KM mice. Description: Apomorphine induced clambering assay of mice. It is filed as in vivo. The following applies: for ED50: Mus musculus, po, apomorphine 1 mg/kg sc. Here is the method: Healthy KM mice (male, with body weight of 18-22 g) were provided by Qinglongshan Animal Cultivation Center, Nanjing.
Test positive drugs: haloperidol, clozapine, risperidone, olanzapine, aripiprazole, ziprasidone, quetiapine.
Apomorphine provided by Sigma Company was dissolved in 0.9% NaCl (containing 0.1% vitamin C) before use, and was freshly formulated before use.
Corresponding solvent double-distilled water was administered intragastrically to the negative control group and the model group, corresponding positive drugs were administered intragastrically to the positive drug groups (a small amount of acetic acid was first added and then double-distilled water was added when dissolving), and corresponding dosages of compounds were administered intragastrically to the compound groups for each dosage, with the volume for intragastric administration as 0.1 ml/10 g. 1 hour after the intragastric administration, apomorphine was subcutaneously injected (1 mg/kg), with the volume as 0.1 ml/10 g. After the injection of apomorphine, the mice were immediately put into the clambering cages. After 5 min of adaptation, the behaviors of the mice at 10-11, 20-21, and 30-31 min after the injection of apomorphine were observed and scored. Scoring criteria: 4 paws on the floor was scored as 0; 2 forepaws on the cage was scored as 1; and 4 paws on the cage was scored as 2.

Series [2] deals with 5-HT2A receptor (Rattus norvegicus, UniProt P14842). Description: 5HT2A receptor binding assay ([3H]-Ketanserin, rat brain striatum membrane). Particulars: read-out: 5HT2A inhibition %.
Chain of 5-HT2A receptor (P14842 whole entry): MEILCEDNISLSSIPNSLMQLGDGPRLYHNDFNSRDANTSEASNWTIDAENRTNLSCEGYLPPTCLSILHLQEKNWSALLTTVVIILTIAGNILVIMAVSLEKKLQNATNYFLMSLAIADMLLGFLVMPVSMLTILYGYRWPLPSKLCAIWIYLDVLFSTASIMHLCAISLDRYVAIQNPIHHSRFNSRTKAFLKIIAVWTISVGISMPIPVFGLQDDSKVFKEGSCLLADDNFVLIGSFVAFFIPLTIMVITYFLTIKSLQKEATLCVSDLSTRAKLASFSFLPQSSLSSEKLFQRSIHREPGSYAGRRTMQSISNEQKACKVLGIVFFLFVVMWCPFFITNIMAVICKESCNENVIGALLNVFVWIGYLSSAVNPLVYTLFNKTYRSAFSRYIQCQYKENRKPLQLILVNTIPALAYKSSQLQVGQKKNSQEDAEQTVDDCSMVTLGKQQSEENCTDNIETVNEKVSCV
The target of series [3] is T1, 5-HT1A receptor (Rattus norvegicus, UniProt P19327).
T1 sequence (P19327 1-422): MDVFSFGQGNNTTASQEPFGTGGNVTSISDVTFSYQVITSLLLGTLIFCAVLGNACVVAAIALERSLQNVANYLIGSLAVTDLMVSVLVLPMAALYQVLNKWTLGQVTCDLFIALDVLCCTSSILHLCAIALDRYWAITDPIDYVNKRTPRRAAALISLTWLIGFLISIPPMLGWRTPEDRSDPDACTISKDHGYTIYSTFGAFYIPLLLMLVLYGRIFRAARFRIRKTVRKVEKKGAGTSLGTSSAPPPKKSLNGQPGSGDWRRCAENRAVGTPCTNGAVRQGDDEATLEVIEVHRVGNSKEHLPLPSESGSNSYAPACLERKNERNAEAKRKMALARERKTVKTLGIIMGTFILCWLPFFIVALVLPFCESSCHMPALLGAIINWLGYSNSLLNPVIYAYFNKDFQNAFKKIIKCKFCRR
Description: 5HT1A receptor binding assay (3H-8-OH-DPAT, rat brain striatum membrane). The following applies: test compound final concentration 10^−5 M; 3H-8-OH-DPAT; rat brain striatum membrane. Here is the method: Incubation at 37° C. was conducted for 10 min, the weight of the tubes were adjusted using a balance after incubation. […] Centrifugation was conducted and repeated 3 times.

A short description of series [4]: Catalepsy assay. The format is in vivo. Particulars: both sexes, Kunming (KM), mouse, in vivo; mice, po. Here is the method:
(§1) Healthy mice of Kunming breed (with half male and half female, (22±2)g) were provided by Qinglongshan Animal Cultivation Center, Nanjing.
(§2) Instruments: self-made bar-grabbing apparatus: stainless steel bar in mice box, which was 0.3 cm in diameter and […].
(§3) Corresponding solvent double-distilled water was administered intragastrically to the negative control group and the model group, corresponding positive drugs were administered intragastrically to the positive drug groups (a small amount of acetic acid was first added and then double-distilled water was added when dissolving), and corresponding dosages of compounds were administered intragastrically to the compound groups for each dosage, with the volume for intragastric administration as 0.1 ml/10 g. At 30 min, 60 min, 90 min after the intragastric administration, the two forepaws of the mice were gently placed on the bars (which were 20 cm in length, 0.3 cm in diameter, and 5.5 cm above the bench), and the hindpaws of the animals were placed on the bottom of the box. The durations for the mice to maintain the posture with the two forepaws on the bars were recorded, and 30 s of spasticity without moving was considered as the positive response. In the case the forepaws of the mice were not put down persistently, the observation was terminated at 60 s. The numbers of animals with positive response in each of the compound dosage groups were counted.

Series [5] deals with KM mice. Description: Catalepsy assay. The format is in vivo. Here is the method: as §1, §2, §3
Series [6] has as its system mice of Kunming breed. The series is described as follows: MK-801 induced high activity in mice. The format is in vivo. Particulars: for ED50: Mus musculus, 1.5 h, po, MK-801 0.1 mg/kg ip, spontaneous activity in 90 min; for improvement of MK-801 induced high activity (in words): compared to the model group. Here is the method: Healthy mice of Kunming breed (with half male and half female, (20±2)g) were provided by Qinglongshan Animal Cultivation Center, Nanjing.
Subsequently, the spontaneous activities of the mice of each group in 90 min were measured.

Series [7] is described as follows: in vivo. Particulars: both, mouse, po.
Description: (§4) KM mice (half male and half female) were randomly divided into several groups (with 2-5 mice in each group), which were respectively the 2000 mg/kg groups for each compound, and the solvent group. 0.2 ml/10 g were administered intragastrically. The death of the animals in 3 days were observed. (In the case 3 or more animals survived in 3 days without notable abnormity in their life states, the observation was continued until the assay was completed in 7 days. In the case 3 or more animals died in 3 days, the median lethal dose method was used to determine the LD50).
(§5) 0.2 ml/10 g were administered intragastrically, and the death of the animals in 1-3 days were observed.
Series [8] deals with dopamine D2 receptor (Rattus norvegicus, UniProt P61169). The series is described as follows: D2 receptor binding assay (3H-Spiperone, rat brain striatum membrane). The following applies: read-out: D2 inhibition %.
Chain of dopamine D2 receptor (P61169 whole entry): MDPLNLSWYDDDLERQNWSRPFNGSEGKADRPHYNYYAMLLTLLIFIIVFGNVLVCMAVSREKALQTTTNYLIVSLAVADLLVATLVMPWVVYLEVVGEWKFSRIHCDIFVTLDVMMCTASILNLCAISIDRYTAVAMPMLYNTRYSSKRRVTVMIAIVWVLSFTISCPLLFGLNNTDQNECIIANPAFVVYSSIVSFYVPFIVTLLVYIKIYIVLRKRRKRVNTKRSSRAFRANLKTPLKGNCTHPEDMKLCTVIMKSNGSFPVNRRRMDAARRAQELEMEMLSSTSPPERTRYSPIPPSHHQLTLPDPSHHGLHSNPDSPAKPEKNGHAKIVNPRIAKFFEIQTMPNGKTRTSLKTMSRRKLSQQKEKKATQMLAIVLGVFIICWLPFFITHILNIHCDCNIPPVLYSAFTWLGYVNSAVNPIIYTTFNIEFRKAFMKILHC
Description: Rats were sacrificed by cervical dislocation on ice. Brain striatum was rapidly taken, and 2 brain striatums were combined into a centrifuge tube, to which 3 ml of buffer (0.05 M Tris-HCl buffer, containing NaCl 120 mM, KCl 5 mM, MgCl2 1 mM, CaCl2 1 mM) was added, homogenization was conducted for 3-4 s at level 4 for four times, and then 5 ml of buffer was then added. The weight of the homogenized tubes were adjusted using a balance, and centrifugation was conducted at 12000 r, 4° C. for 20 min. The supernatant was discarded, and 3 ml of buffer was added (0.05 M Tris-HCl buffer, containing NaCl 120 mM, KCl 5 mM, MgCl2 1 mM, CaCl2 1 mM). Vortex mixer was used for blending, and then 5 ml of buffer was added (0.05 M Tris-HCl buffer, containing NaCl 120 mM, KCl 5 mM, MgCl2 1 mM, CaCl2 1 mM). Centrifugation was conducted (repeated 3 times). After the centrifugations, the supernatant was discarded, and the pellets were stored at −80° C. for future use.
Beckman LS-6500 Multi-function Liquid Scintillation Counter was used.
(1) The prepared membrane was first applied with appropriate amount of homogenized liquid, and homogenizer was used for evenly dispersing. 15 tubes were mixed into a 100 ml container, and appropriate amount of homogenized liquid was added to give 50 ml of membrane suspension, which was reserved for future use.
(2) 100 μL of membrane preparation and 100 μL of buffer were added into each reaction tube.
(3) 100 μL of homogenized liquid was added into the total binding tube (TB), 100 μL of Butaclamol (final concentration 10^−5 M) was added into the non-specific binding tube (NB), and 100 μL of the test compound (final concentration 10^−5 M) was added into the specific binding tube (SB) for each compound.
(5) Each of the reaction tubes was incubated at 37° C. for 20 min. After the reaction was completed, the bound ligands were rapidly filtered under reduced pressure, and the ice-chilled assay buffer was used for adequate washing. The filter was taken out and put into a 3 ml scintillation vial, and 2 ml of toluene scintillation solution was added and blended.
(6) The scintillation vials were put into Liquid Scintillation Counter for counting. Inhibitory rate(1%)=(Total binding tube cpm−compound cpm)/(Total binding tube cpm−non-specific binding tube cpm)×100%
Each assay for the compounds was conducted in duplicate.
Series [9] deals with KM mice. The following applies: both, mouse, in vivo.
Description: as §4, §5

Read-outs that look alike come from different tables or passages of the source.

In the case of `Cc1cc(=O)oc2c(Cl)c(OCCCCN3CCC(c4noc5cc(F)ccc45)CC3)ccc12` [Compound 19, 7-(4-(4-(3-(6-fluoro-benzisoxazole)-1-piperidyl)-n-butoxy))-4-methyl-8-chloro-2H-benzopyran-2-one], the “improvement of apomorphine induced clambering symptoms (in words)” value in series [1] is “effectively improve”. The ED50 in [1] was 1.68 mg/kg; in series [4], 70.8 mg/kg; in [6], 1.33 mg/kg. The inhibition at 10 µM in [2] (test compound final concentration 10^−5 M, [3H]-Ketanserin, rat brain striatum membrane) worked out at 119%; in [3] it was 104%; in [8], 27.8%. Further, in series [5], the “EPS at effective dosage (in words)” value was “did not cause EPS”. In addition, the “improvement of MK-801 induced high activity (in words)” value in series [6] is “significantly improve”. The molecule further came in with an LD50 in series [7] (KM) greater than 2000 mg/kg.
For `Cc1cc(=O)oc2c(C)c(OCCCCN3CCC(c4noc5cc(F)ccc45)CC3)ccc12` [Compound 23, 7-(4-(4-(3-(6-fluoro-benzisoxazole)-1-piperidyl)-n-butoxy))-4,8-dimethyl-2H-benzopyran-2-one], the “improvement of apomorphine induced clambering symptoms (in words)” value in series [1] was “effectively improve”. For the same molecule, the 50% effective dose (ED50) in series [1] came out at 0.21 mg/kg; in series [4] it was 46.1 mg/kg; in series [6] it was 4.24 mg/kg. Also, the values for the inhibition at 10 µM in [2], in [3] and in series [8] were 78.6%, 78.5% and 6.9%, respectively. Besides, the “EPS at effective dosage (in words)” value in series [5] is on record as “did not cause EPS”. The “improvement of MK-801 induced high activity (in words)” value in [6] is “significantly improve”. The same molecule gave an LD50 in series [7] greater than 2000 mg/kg.
With `O=C1CCc2ccc(OCCCCN3CCN(c4cccc(Cl)c4Cl)CC3)cc2N1` [aripiprazole], the “LD50 (po, mg/kg)” value in series [9] was determined as 93 mg/kg.
